According to patent US11931321B2, “Compositions comprising a dendrimer-resveratrol complex and methods for making and using the same” (Concordia University, priority 2013, dated 2024):

Tests used:
[1] = Stability studies: HPLC of resveratrol remaining in aqueous solution; assay type: physicochemical
Protocol: The sample can then be analyzed via HPLC to determine the amount of resveratrol in the composition. This amount of resveratrol can be compared to the initially determined amount. This comparison amount can be used to determine the percent degradation.
Stability was determined by HPLC analysis of a 1% PAMAM-G4 amine dendrimer-resveratrol complex at 21° C. (ambient temperature), 37° C., and 4° C. […]

[2] = Dissolution studies in simulated gastric and intestinal fluids; assay type: physicochemical
Protocol: The formulation was split into 2 equal aliquots and lyophilized. Simulated gastric and intestinal fluids were prepared, with the simulated gastric fluid consisting of HCl, NaCl, Pepsin, and water while the simulated intestinal fluid consisted of NaOH, KH2PO4, and water. […] This experiment was protected from light. At various time points, 0.5 mL aliquots of fluid were removed from the chambers and analyzed via HPLC. The volume removed was replaced with fresh simulated fluid.

[3] = background statement; cited from earlier work
[4] = background statement; cited from earlier work; remark: listed apart in the source

## Oc1ccc(C=Cc2cc(O)cc(O)c2)cc1 [Resveratrol, 3,4′,5-trihydroxystilbene]
[1]; 4° C., day 29, aqueous solution
  drug remained intact: no drug remained
[1]; ambient temperature (21° C.), day 4, aqueous solution
  resveratrol remained intact: completely degraded
[2]; simulated gastric fluid
  time to dissolution (still dissolving at final time point): > 4.5 h
[2]; simulated intestinal fluid
  time to dissolution (still dissolving at final time point): > 4.5 h
[3]
  aqueous solubility: 15 to 40 ng/mL
[4]
  half-life: 8 to 14 min
  metabolic stability: poor
  oral bioavailability: low
